Test results reported in patent US20040242502A1, “Semi-synthetic saponin analogs with carrier and immune stimulatory activities for DNA and RNA vaccines” (Galenica Pharmaceuticals, Inc., priority 2003, published 2004).
Several values for one entry are separate records, joined by “and”; a condition that tells them apart may be missing. Equal values may be shown once.

System: Female Balb/c mice
Test: Immunization of Balb/c mice with OVA cDNA in the presence and absence of DMPS; anti-OVA antibody ELISA of serum
Assay type: in vivo
Conditions: anti-OVA ELISA on OVA coated plates, serum dilution 1:100, bled 14 days after last immunization, i.m. days 1 and 15, 20 OVA DNA alone or +50 DMPS
Description: Female Balb/c mice were immunized intramuscularly at days 1 and 15 with 0.2 mL of phosphate buffered saline solution (PBS) containing 20 μg of chicken OVA cDNA alone or with 50 μg of 3-dimethylamino-1-propylamino-DS-saponin (DMPS). The complete OVA cDNA was sub-cloned into a mammalian expression vector containing the human β-actin promotor and the neomycin resistant gene, under control of the SV40 promotor, to yield pAC-Neo-OVA. Negative control animals received PBS only. Animals were bled 14 days after the last immunization. Total IgG and IgG2a were determined by ELISA using OVA coated plates and a serum dilution of 1:100. The serum dilution was incubated at 37° C. for 1 hour and the plates were washed. After incubation with anti IgG-HRP conjugate, the plates were washed and developed with a TMB substrate for 15 minutes at room temperature, stopped by the addition of 0.18 M sulfuric acid, and read at 450 nm.

With “3-dimethylamino-1-propylamino-DS-saponin [DMPS]” the “Absorbance (450 nm), Average” value (average of 5 mice ± spread) was 0.188 ± 0.093 and the “Absorbance (450 nm), individual mice” value (mice 1-5) was 0.400 and 0.210 and 0.092 and 0.140 and 0.100.
